The text below walks through data of patent US20120238488A1, “COMPOUNDS AND METHODS FOR TREATING NEOPLASIA” (priority 2009, published 2012).

Assay [1] concerns 22 different cell lines, nine tumor panels (lung, melanoma, ovary, prostate, CNS, breast, pancreas colon and renal). The assay can be described thus: SRB assay, all tumor cell line panels (summary statements). Type of assay: cell-based, human. The settings on record: lung, breast, CNS, colon, prostate, ovary, pancreas, kidney and melanoma lines, including a multidrug resistant cell line. On the procedure:
(§1) SRB assays were performed according to standard National Cancer Institute Guidelines. Briefly, human tumor cells from different cancer panels were seeded into 96 well plates in 100 μL (plating densities ranging from 5-40,000 cells/well depending on the doubling time of individual cell lines) in serum-containing media for twenty-four hours prior to the addition of the compounds to be assayed. After 24 hours, one plate of each cell line was fixed in situ with trichloroacetic acid (TCA). The fixed slides were used to determine the cell population for each cell line at the time of drug addition (Tz). Each compound to be tested was solubilized in DMSO and the desired concentration was then added to the medium and diluted serially 1:10 to provide a total of five or ten drug concentrations plus control (in a final volume of 200 μL). The starting dose before any dilution was 100 uM for all compounds.
(§2) Following drug addition, each culture was incubated for forty-eight hours. The assay was terminated with the addition of cold TCA. The supernatant was discarded, and the plates were washed with tap water and air dried. Sulforhodamine B (SRB) solution was then added to each well. After staining, the bound stain was solubilized and the absorbance was read on an automated plate reader at a wavelength of 515 nm.
(§3) Using the absorbance measurements [time zero, (Tz), control growth, (C), and test growth in the presence of drug at the ten concentration levels (Ti)], the percentage growth was calculated at each of the drug concentrations levels. Percentage growth inhibition was calculated as:
Three dose response parameters were calculated for each experimental agent. […] The drug concentration resulting in total growth inhibition (TGI) was calculated from Ti=Tz. The LC50 (concentration of drug resulting in a 50% reduction in the measured protein at the end of the drug treatment as compared to that at the beginning) indicating a net loss of cells following treatment was calculated from [(Ti−Tz)/Tz]×100=−50.
Each of these parameters in Table 4 was calculated in a sulforhodamine B (SRB) assay, which provides a colorimetric measure of a compound's anti-cancer activity. SRB assays were performed with compounds of the invention in 22 different cell lines (shaded in light gray in Table 4), which represent nine different tumor panels (lung, melanoma, ovary, prostate, CNS, breast, pancreas colon and renal). […] Paclitaxel was added as a non-Na^+K^+-ATPase inhibitor control.
Background: The SRB assay estimates cell density from bound dye.

Assay [2] concerns membrane androgen receptor. Kind of assay: Membrane androgen receptor competition assay, DU145 cells. Type of assay: binding. Particulars: 40 μM compound 30 minutes before 40 μM testosterone-HSA-FITC, FIGS. 3B, 3C. The source says: To assess whether compounds of the invention were capable of binding directly to the membrane androgen receptor, a fluorescent-based assay was used to measure the ability of a given compound to preclude binding of a fluorescent mAR ligand (testosterone-HSA-FITC conjugates) to its receptor in LNCaP and DU145 cells (see Kampa, M et al, 2002, Faseb J 16:1429-1431, and PCT/U52007/007913).
The detection of membrane androgen receptors using fluorescent testosterone-serum albumin conjugates was performed as described by Kampa, M et al, 2002, Faseb J 16:1429-1431, with minor modifications. Briefly, LNCaP or DU145 prostate cancer cells were cultured on 0.1% gelatin-coated glass coverslips in RPMI 1640 medium supplemented with 2 mM L-Glutamine, 10% Fetal Bovine Serum and 1% Penicillin/Streptomycin for at least 48 hours until reaching 70% confluency. After a 24 hour serum starvation period, cells were incubated with 40 μM testosterone-HSA-FITC for 1 hour at room temperature. The cells were then washed three times with phosphate buffered saline (PBS) and fixed with 3.7% formaldehyde in PBS for 5 minutes at room temperature. Human serum albumin-FITC was used as a control for background staining. […] Coverslips were mounted on slides by using the Slow Fade/Antifade Reagent (Molecular Probes) and studied under a LEICA DMLB microscope, equipped with the appropriate fluorescence filters and a Leica DC 300F camera. Specimens were analyzed using the Leica FW4000 computer program.
To determine the capacity of a given compound to preclude binding of fluorescent testosterone-HSA conjugates (TAC) to the membrane androgen receptor, starved LNCaP or DU145 cells on coverslips prepared as described above were pre-treated with 40 μM of the indicated compound for 30 minutes prior to the addition of testosterone-HSA-FITC. […] Specimens were prepared and analyzed as described above. Compounds binding to the membrane androgen receptor preclude binding of fluorescent testosterone-HSA conjugates to their target and abolish membrane-specific fluorescence.

In the next assay the test system is H160 (Lung). The assay can be described thus: SRB assay, H160. Particulars: 48 h. Type of assay: cell-based, human. On the procedure:
as §1, §2, §3
(§4) [(Ti−Tz)/(C−Tz)]×100 for concentrations for which Ti>/=Tz
(§5) [(Ti−Tz)/Tz]×100 for concentrations for which Ti<Tz.
(§6) Three dose response parameters were calculated for each experimental agent. Growth inhibition of 50% (GI50) was calculated from [(Ti−Tz)/(C−Tz)]×100=50, which was the drug concentration resulting in a 50% reduction in the net protein increase (as measured by SRB staining) in control cells during the drug. The drug concentration resulting in total growth inhibition (TGI) was calculated from Ti=Tz. The LC50 (concentration of drug resulting in a 50% reduction in the measured protein at the end of the drug treatment as compared to that at the beginning) indicating a net loss of cells following treatment was calculated from [(Ti−Tz)/Tz]×100=−50.
(§7) Values were calculated for each of these three parameters when the level of activity was reached; however, if the effect was not reached or was exceeded, the value for that parameter was expressed as greater or less than the maximum or minimum concentration tested.
(§8) Table 4 summarizes results characterizing the effects of compound Nos. 120, 12, 61, 1, and 56 on GI50, which measures the cell growth inhibitory power of the compound, TGI, which measures cytostatic effect (TGI) and LC50, which signifies cytotoxic effect. Each of these parameters in Table 4 was calculated in a sulforhodamine B (SRB) assay, which provides a colorimetric measure of a compound's anti-cancer activity. SRB assays were performed with compounds of the invention in 22 different cell lines (shaded in light gray in Table 4), which represent nine different tumor panels (lung, melanoma, ovary, prostate, CNS, breast, pancreas colon and renal). Ouabain and digoxin were used as controls. Paclitaxel was added as a non-Na^+K^+-ATPase inhibitor control.

The test system of another assay is PCJ (Prostate). The assay can be described thus: SRB assay, PCJ. In kind it is cell-based. Particulars: Homo sapiens, 48 h. On the procedure: as §1, §2, §3, §4, §5, §6, §7, §8
A further assay deals with SF268 (CNS). Kind of assay: SRB assay, SF268. Type of assay: cell-based. The settings on record: Homo sapiens. On the procedure:
as §1, §2, §3, §4, §5, §6, §7, §8

For the next assay, the system named is MCF7 (Breast). Kind of assay: SRB assay, MCF7. In kind it is cell-based, human. As to the method: as §1, §2, §3, §4, §5, §6, §7, §8
The next assay concerns HCT116 (Colon). The assay can be described thus: SRB assay, HCT116. Type of assay: cell-based. Particulars: Homo sapiens. As to the method:
as §1, §2, §3, §4, §5, §6, §7, §8

As for `C[C@]12CCC(=NOCCn3cc(CN)nn3)CC1CCC1C2CC[C@]2(C)C(=O)CCC12` (stereo partly drawn) [Compound 31, (10S,13S)-3-(2-(4-(aminomethyl)-1H-1,2,3-triazol-1-yl)ethoxyimino)-10,13-dimethyltetradecahydro-1H-cyclopenta[a]phenanthren-17(2H)-one], the “viability and/or cell proliferation of neoplastic cell lines” value in assay [1] is reported as “reduced the viability and/or cell proliferation”.

For the compound `C[C@]12CC[C@H](O)C[C@H]1CC[C@@H]1[C@@H]2CC[C@]2(C)[C@@](O)(c3ccoc3)CC[C@]12O` [rostafuroxin, reference compound], in assay [2], the “membrane fluorescence of TAC-FITC after pre-treatment (binding to mAR precluded)” value is “failed to block binding of TAC-FITC to mAR”.

In the case of `C[C@@H]1O[C@@H](O[C@H]2C[C@@H](O)[C@]3(CO)[C@H]4[C@H](O)C[C@]5(C)[C@@H](C6=CC(=O)OC6)CC[C@]5(O)[C@@H]4CC[C@]3(O)C2)[C@H](O)[C@H](O)[C@H]1O` [Ouabain, reference compound], the TGI in the assay on H160 (Lung) (H160, SRB) was 0.1 µM; in the assay with MCF7 (Breast) (MCF7, SRB, 48 h), 0.2 µM. Also, the CC50 with H160 (Lung) (Homo sapiens, read-out: LC50) was 0.3 µM; in the assay on PCJ (Prostate) (read-out: LC50) it was 0.3 µM; in the assay with SF268 (CNS) (SF-268, 48 h, read-out: LC50), 0.3 µM; in the assay with MCF7 (Breast) (Homo sapiens, MCF7, 48 h, read-out: LC50), 0.3 µM; with HCT116 (Colon) (HCT-116, 48 h, read-out: LC50), greater than 50 µM. Moreover, the GI50 in the assay with H160 (Lung) (Homo sapiens, H160, SRB) is less than 0.08 µM; with PCJ (Prostate) (PCJ, SRB), less than 0.08 µM; in the assay with SF268 (CNS) (SF-268, SF268, SRB, 48 h, read-out: GI50), less than 0.08 µM; in the assay with MCF7 (Breast) (Homo sapiens, MCF7, SRB, 48 h), less than 0.08 µM; in the assay on HCT116 (Colon) (HCT-116, HCT116, SRB, 48 h), less than 0.08 µM. The IC (TGI) in the assay on PCJ (Prostate) (PCJ, SRB) came to 0.1 µM; with SF268 (CNS) (SF-268, SF268, SRB, 48 h, read-out: TGI), 0.1 µM; in the assay with HCT116 (Colon) (HCT-116, HCT116, SRB, 48 h), 4.5 µM.

As usually defined, the TGI is the concentration giving total growth inhibition. A lower TGI goes with greater sensitivity of the cells. Usually GI50 stands for the concentration giving 50% growth inhibition.
